How the values were obtained:
Solubility = format: physicochemical
[1] = Photochemical and thermal stability; format: physicochemical

SMILES | solubility in aqueous solution (Solubility) | photochemical and thermal stability [1]
O=S(=O)([O-])CCC[S-].O=S(=O)([O-])CCC[S-].[Ag+].[Na+].[Na+].[Na+] [Na^+3[Ag^+(MPS^2−)2]^3−] | very high solubility | 
O=C([O-])c1ccccc1[S-].O=C([O-])c1ccccc1[S-].[Ag+].[Na+].[Na+].[Na+] [Na^+3[Ag^+(TS^2−)2]^3−] | very high solubility | thermally and photochemically stable
O=S(=O)([O-])c1ccc2[nH]c([S-])nc2c1.O=S(=O)([O-])c1ccc2[nH]c([S-])nc2c1.[Ag+].[Na+].[Na+].[Na+] [Na^+3[Ag^+(X^2−)2]^3−] | very high solubility | thermally and photochemically stable
